pIC50: −log10 of the molar value. “And” between values parts separate entries of the source, which are not always exact repeats. Equal values may be shown once.
Test system: NCI-H196 complex spheroids with HUVEC/MSC, growth % T/C
Assay: Anticancer human tumor NCI-H196 cell line growth inhibition [Asc];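 also: spheroids exposed to compound for 7 days before measurement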;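 as to viability, T/C: 100% = DMSO vehicle control wells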
Settings: for viability, T/C: stronger effect = lower value
In short: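 Complex solid-tumor spheroids incorporating human endothelial and mesenchymal stem cells received single agents or combinations over half-log dilution ranges anchored to clinical Cmax.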

[1] = curve of first compound, second compound 0.1 µM
[2] = curve of first compound, second compound 0.316 µM
[3] = curve of first compound, second compound 1 µM
[4] = second compound 0.1 µM, first compound 0.00316 µM
[5] = second compound 0.1 µM, first compound 0.01 µM
[6] = second compound 0.1 µM, first compound 0.0316 µM
[7] = second compound 0.1 µM, first compound 0.1 µM
[8] = second compound 0.316 µM, first compound 0.00316 µM
[9] = second compound 0.316 µM, first compound 0.01 µM
[10] = second compound 0.316 µM, first compound 0.0316 µM
[11] = second compound 0.316 µM, first compound 0.1 µM
[12] = second compound 1 µM, first compound 0.00316 µM
[13] = second compound 1 µM, first compound 0.01 µM
[14] = second compound 1 µM, first compound 0.0316 µM
[15] = second compound 1 µM, first compound 0.1 µM
[16] = curve of first compound, second compound 0.03 µM
[17] = curve of first compound, second compound 0.0949 µM
[18] = curve of first compound, second compound 0.3 µM
[19] = curve of first compound, second compound 0.949 µM
[20] = curve of first compound, second compound 3 µM
[21] = second compound 0.03 µM, first compound 0.00316 µM
[22] = second compound 0.03 µM, first compound 0.01 µM
[23] = second compound 0.03 µM, first compound 0.0316 µM
[24] = second compound 0.03 µM, first compound 0.1 µM
[25] = second compound 0.03 µM, first compound 0.316 µM
[26] = second compound 0.03 µM, first compound 1 µM
[27] = second compound 0.0949 µM, first compound 0.00316 µM
[28] = second compound 0.0949 µM, first compound 0.01 µM
[29] = second compound 0.0949 µM, first compound 0.0316 µM
[30] = second compound 0.0949 µM, first compound 0.1 µM
[31] = second compound 0.0949 µM, first compound 0.316 µM
[32] = second compound 0.0949 µM, first compound 1 µM
[33] = second compound 0.3 µM, first compound 0.00316 µM
[34] = second compound 0.3 µM, first compound 0.01 µM
[35] = second compound 0.3 µM, first compound 0.0316 µM
[36] = second compound 0.3 µM, first compound 0.1 µM
[37] = second compound 0.3 µM, first compound 0.316 µM
[38] = second compound 0.3 µM, first compound 1 µM
[39] = second compound 0.949 µM, first compound 0.00316 µM
[40] = second compound 0.949 µM, first compound 0.01 µM
[41] = second compound 0.949 µM, first compound 0.0316 µM
[42] = second compound 0.949 µM, first compound 0.1 µM
[43] = second compound 0.949 µM, first compound 0.316 µM
[44] = second compound 0.949 µM, first compound 1 µM
[45] = second compound 3 µM, first compound 0.00316 µM
[46] = second compound 3 µM, first compound 0.01 µM
[47] = second compound 3 µM, first compound 0.0316 µM
[48] = second compound 3 µM, first compound 0.1 µM
[49] = second compound 3 µM, first compound 0.316 µM
[50] = second compound 3 µM, first compound 1 µM

## COc1c(OCCCN2CCOCC2)ccc2c3n(c(=NC(=O)c4cnc(N)nc4)nc12)CCN3 + Cc1c(S(C)(=O)=O)c(-c2cc(F)cc(N3CCN(c4ccc(NS(=O)(=O)c5ccc(NC(CCN6CCC(C(=O)OCCCP(=O)(O)O)CC6)CSc6ccccc6)c(S(=O)(=O)C(F)(F)F)c5)cc4)CC3)c2)c(-c2ccc(Cl)cc2)n1C(C)C
[1]
  pIC50: < 6.00
[2]
  pIC50: < 6.00
[3]
  pIC50: 6.54
Curve of first compound, second compound 3.16 µM
  pIC50: 6.65
Curve of first compound, second compound 10 µM
  pIC50: 6.88
[4]
  viability, T/C: 96.6%
[5]
  viability, T/C: 88.3%
[6]
  viability, T/C: 76.4%
[7]
  viability, T/C: 77.5%
Second compound 0.1 µM, first compound 0.316 µM
  viability, T/C: 59.7%
Second compound 0.1 µM, first compound 1 µM
  viability, T/C: 50.8%
[8]
  viability, T/C: 90.6%
[9]
  viability, T/C: 86.8%
[10]
  viability, T/C: 82.3%
[11]
  viability, T/C: 62.7%
Second compound 0.316 µM, first compound 0.316 µM
  viability, T/C: 57.9%
Second compound 0.316 µM, first compound 1 µM
  viability, T/C: 50.7%
[12]
  viability, T/C: 88.8%
[13]
  viability, T/C: 86.5%
[14]
  viability, T/C: 74.6%
[15]
  viability, T/C: 60.5%
Second compound 1 µM, first compound 0.316 µM
  viability, T/C: 49.3%
Second compound 1 µM, first compound 1 µM
  viability, T/C: 43.9%
Second compound 3.16 µM, first compound 0.00316 µM
  viability, T/C: 80%
Second compound 3.16 µM, first compound 0.01 µM
  viability, T/C: 88.7%
Second compound 3.16 µM, first compound 0.0316 µM
  viability, T/C: 72.3%
Second compound 3.16 µM, first compound 0.1 µM
  viability, T/C: 62.8%
Second compound 3.16 µM, first compound 0.316 µM
  viability, T/C: 44.8%
Second compound 3.16 µM, first compound 1 µM
  viability, T/C: 37.4%
Second compound 10 µM, first compound 0.00316 µM
  viability, T/C: 74.2%
Second compound 10 µM, first compound 0.01 µM
  viability, T/C: 80.1%
Second compound 10 µM, first compound 0.0316 µM
  viability, T/C: 65.7%
Second compound 10 µM, first compound 0.1 µM
  viability, T/C: 52.6%
Second compound 10 µM, first compound 0.316 µM
  viability, T/C: 41.5%
Second compound 10 µM, first compound 1 µM
  viability, T/C: 32.3%

## O=C(c1ccc(F)c(F)c1Nc1ccc(I)cc1F)N1CC(O)([C@@H]2CCCCN2)C1 + CCN1C(C(=O)NC23CCC(C(=O)O)(CC2)CC3)C(c2cccc(Cl)c2F)C2(C(=O)Nc3cc(Cl)ccc32)C12CCCCC2
[16]
  pIC50: < 6.00
[17]
  pIC50: < 6.00
[18]
  pIC50: < 6.00
[19]
  pIC50: < 6.00
[20]
  pIC50: < 6.00
[21]
  viability, T/C: 107%
[22]
  viability, T/C: 110%
[23]
  viability, T/C: 101%
[24]
  viability, T/C: 111%
[25]
  viability, T/C: 123%
[26]
  viability, T/C: 157%
[27]
  viability, T/C: 105%
[28]
  viability, T/C: 121%
[29]
  viability, T/C: 108%
[30]
  viability, T/C: 112%
[31]
  viability, T/C: 127%
[32]
  viability, T/C: 131%
[33]
  viability, T/C: 104%
[34]
  viability, T/C: 114%
[35]
  viability, T/C: 123%
[36]
  viability, T/C: 115%
[37]
  viability, T/C: 125%
[38]
  viability, T/C: 122%
[39]
  viability, T/C: 115%
[40]
  viability, T/C: 120%
[41]
  viability, T/C: 125%
[42]
  viability, T/C: 120%
[43]
  viability, T/C: 145%
[44]
  viability, T/C: 144%
[45]
  viability, T/C: 124%
[46]
  viability, T/C: 123%
[47]
  viability, T/C: 126%
[48]
  viability, T/C: 121%
[49]
  viability, T/C: 136%
[50]
  viability, T/C: 154%

## COc1c(OCCCN2CCOCC2)ccc2c3n(c(=NC(=O)c4cnc(N)nc4)nc12)CCN3 + CCN1C(C(=O)NC23CCC(C(=O)O)(CC2)CC3)C(c2cccc(Cl)c2F)C2(C(=O)Nc3cc(Cl)ccc32)C12CCCCC2
[16]
  pIC50: < 6.00
[17]
  pIC50: < 6.00
[18]
  pIC50: < 6.00
[19]
  pIC50: < 6.00
[20]
  pIC50: < 6.00
[21]
  viability, T/C: 101%
[22]
  viability, T/C: 106%
[23]
  viability, T/C: 91%
[24]
  viability, T/C: 77.1%
[25]
  viability, T/C: 68.8%
[26]
  viability, T/C: 52.1%
[27]
  viability, T/C: 117%
[28]
  viability, T/C: 99.6%
[29]
  viability, T/C: 98.5%
[30]
  viability, T/C: 82.8%
[31]
  viability, T/C: 72.7%
[32]
  viability, T/C: 52.2%
[33]
  viability, T/C: 110%
[34]
  viability, T/C: 102%
[35]
  viability, T/C: 106%
[36]
  viability, T/C: 83.1%
[37]
  viability, T/C: 73.3%
[38]
  viability, T/C: 59.7%
[39]
  viability, T/C: 103%
[40]
  viability, T/C: 109%
[41]
  viability, T/C: 94.9%
[42]
  viability, T/C: 85.7%
[43]
  viability, T/C: 66.9%
[44]
  viability, T/C: 57.3%
[45]
  viability, T/C: 113%
[46]
  viability, T/C: 106%
[47]
  viability, T/C: 105%
[48]
  viability, T/C: 81.2%
[49]
  viability, T/C: 73.1%
[50]
  viability, T/C: 54.2%

## NC1CCC(NC2CC2c2ccccc2)CC1 (configuration not stated) + CNC(C)C(=O)NC1CN(S(=O)(=O)c2cccc(S(=O)(=O)N3CCC4CCC(C(=O)NC(c5ccccc5)c5ccccc5)N4C(=O)C(NC(=O)C(C)NC)C3)c2)CCC2CCC(C(=O)NC(c3ccccc3)c3ccccc3)N2C1=O
Curve of first compound, second compound 0.01 µM
  pIC50: > 9.50
Curve of first compound, second compound 0.0316 µM
  pIC50: > 9.50
[1]
  pIC50: > 9.50
[2]
  pIC50: > 9.50
[3]
  pIC50: > 9.50
Second compound 0.01 µM, first compound 0.000316 µM
  viability, T/C: 4.85%
Second compound 0.01 µM, first compound 0.001 µM
  viability, T/C: 7.42%
Second compound 0.01 µM, first compound 0.00316 µM
  viability, T/C: 7.08%
Second compound 0.01 µM, first compound 0.01 µM
  viability, T/C: 4.94%
Second compound 0.01 µM, first compound 0.0316 µM
  viability, T/C: 4.47%
Second compound 0.01 µM, first compound 0.1 µM
  viability, T/C: 5.83%
Second compound 0.0316 µM, first compound 0.000316 µM
  viability, T/C: 3.28%
Second compound 0.0316 µM, first compound 0.001 µM
  viability, T/C: 3.9%
Second compound 0.0316 µM, first compound 0.00316 µM
  viability, T/C: 6.09%
Second compound 0.0316 µM, first compound 0.01 µM
  viability, T/C: 4.65%
Second compound 0.0316 µM, first compound 0.0316 µM
  viability, T/C: 4.22%
Second compound 0.0316 µM, first compound 0.1 µM
  viability, T/C: 4.12%
Second compound 0.1 µM, first compound 0.000316 µM
  viability, T/C: 3.22%
Second compound 0.1 µM, first compound 0.001 µM
  viability, T/C: 3.76%
[4]
  viability, T/C: 3.15%
[5]
  viability, T/C: 3.8%
[6]
  viability, T/C: 2.91%
[7]
  viability, T/C: 5.63%
Second compound 0.316 µM, first compound 0.000316 µM
  viability, T/C: 3.14%
Second compound 0.316 µM, first compound 0.001 µM
  viability, T/C: 3.25%
[8]
  viability, T/C: 3.34%
[9]
  viability, T/C: 2.68%
[10]
  viability, T/C: 2.82%
[11]
  viability, T/C: 2.95%
Second compound 1 µM, first compound 0.000316 µM
  viability, T/C: 3.04%
Second compound 1 µM, first compound 0.001 µM
  viability, T/C: 4.43%
[12]
  viability, T/C: 3.1%
[13]
  viability, T/C: 3.47%
[14]
  viability, T/C: 3.24%
[15]
  viability, T/C: 2.28%

## CCN1C(C(=O)NC23CCC(C(=O)O)(CC2)CC3)C(c2cccc(Cl)c2F)C2(C(=O)Nc3cc(Cl)ccc32)C12CCCCC2 (configuration not stated)
Compound 0.00949 µM
  viability, T/C: 102% and 98.3%
Compound 0.03 µM
  viability, T/C: 102% [middle of 15 runs]
Compound 0.0949 µM
  viability, T/C: 106% [middle of 15 runs]
Compound 0.3 µM
  viability, T/C: 106% [middle of 15 runs]
Compound 0.949 µM
  viability, T/C: 113% [middle of 15 runs]
Compound alone, run of 09/27/2022
  pIC50: < 5.52
Curve of compound
  pIC50: < 5.52

Source: PubChem BioAssay AID1963439 (Molecular Pharmacology Branch, DTP, NCI, 2024)
